Experimental data as given in US8633314B2, “Forms of a multicyclic compound” (Cephalon, Inc., priority 2009, dated 2014).
Each block holds one compound with its values, some of them ahead of it.

How the values were obtained:
Format in all cases: physicochemical
[1] = Solid state stress stability (storage; XRPD and stability-indicating HPLC)
Protocol: Typically 10 μL aliquots of the sample solutions were diluted to 1 mL with acetonitrile and the assay concentrations were determined from an average of duplicate injections using the following HPLC method. The purity and impurity analyses are done using conventional HPLC.
Crystallization studies were performed to investigate polymorphism in 48 different solvents. Solvents were selected on the basis of acceptability (ICH Class 3 and 2) and to give a range of dielectric constants, dipole moments and functional groups. Two starting materials were selected: Form A0 and Lot 7 (a mixture of Form A0, Form HC0 and Form HD0). When possible, full characterization was performed on the new forms that were generated during the polymorphism screening of Compound I. This characterization consisted of: XRPD, thermal analysis, DVS, storage at 40° C./75% RH and purity.
Stress stability studies were performed to get a timely impression of the influence of temperature and humidity on form stability. A stability-indicating HPLC assay method was developed for quantitation of Compound I and its major degradation product, 7-methoxy-1,2,3,11-tetrahydro-5,11-diaza-benzo[a]trindene-4,6-dione, previously referred to as “Compound E”.

[2] = Dynamic vapor sorption (DVS)
Protocol: Gravimetric vapor sorption experiments were carried out using the DVS-HT instrument (Surface Measurement Systems, London, UK). This instrument measures the uptake and loss of vapor gravimetrically using a recording ultra-microbalance with a mass resolution of ±0.1 μg. The vapor partial pressure (±1.0%) around the sample was controlled by mixing saturated and dry carrier gas streams using electronic mass flow controllers. The desired temperature was maintained at ±0.1° C.
The samples (10-25 mg) were placed into the DVS-HT instrument at the desired temperature. Two types of dynamic vapor sorption experiments were performed: • 1. The sample was initially dried in stream of dry air (<0.1% relative humidity (RH)) for 20 hours to establish a dry mass and exposed to two 0-90% RH cycles (in 10% RH increments). • 2. The sample was exposed at 90% RH for 20 hours and exposed to two 90-0% RH cycles (in 10% RH increments). Infrared Spectrometry (FTIR)

[3] = Mechanical stress: grinding by mortar and pestle, milling by Wig-L-Bug
Protocol: Approximately 100 mg of Compound I was ground at different times ranging from 5 to 27 min in an agate mortar. Samples were removed for XRPD and thermal analysis. The grinding process was stopped every 5 minutes to scrape and remix powder cakes at the curvature end of the jars to ensure homogenous grinding.
A Wig-l-Bug® (Piketech, USA) was used to grind Compound I Form A0, HA0 and HB0 (mixture of Forms HC0 and HD0). Each sample (50 mg) was ground for periods of 5 and 10 minutes or until no change was observed. Each milling was carried out in a 2.82 cm^3 container using 0.9 g stainless steel ball ([…]). The vial is swung through a 6.5° arc at 3200 rpm, causing the ball to strike the end of the vial at over 100 Hz.

[4] = Relative stability of slurries in water (XRPD of residual solid); conditions: for form after slurrying in water: slurried overnight in 2 ml water, all conditions investigated; for Forms Found (XRPD of residual solid): water
Protocol: Two ml of water was added to a few milligrams of Compound I forms. The samples were slurried overnight. A small sample of solid was removed and analyzed by XRPD. […] The hydrate form appears to be more thermodynamically stable than Form A0 between 5 and 45° C.

[5] = Well plate crystallization with added water (forms found)
Protocol: B. Plates containing 10 volumes of Compound I (40 mg of Lot 7 in 400 μL) were heated from 20° C. to an initial temperature of 80° C. at a rate of 4.8° C./min and after 30 minutes, cooled at a slow (0.28° C./min), or fast (10° C./min) rate to a final temperature of 5° C. and kept at that temperature for 18 hours. The crystallization experiments were carried out in glass vial (4 mL) well plates, and solid material was isolated by filtration. The solid was dried at 57° C. for 10 hours.

[6] = Variable temperature X-ray powder diffraction (VT-XRPD)
Protocol: Variable temperature studies were performed under a nitrogen atmosphere with an Anton Paar TTK450 temperature chamber under computer control through an Anton Paar TCU100 temperature control unit. Two measurement schemes were used, restricted and continuous. In the restricted mode, measurements were made, only after the TK450 chamber reached the requested temperature. In the continuous mode, the sample was heated at 10° C./minute and fast scans were measured as the temperature changed. After the requested temperature was reached, the sample was cooled at 30 or 35° C./minute and a slower scan measured 25° C.

[7] = Irregular DVS (90 to 0% RH), listed as A0
[8] = Regular DVS (0 to 90% RH), listed as A0
[9] = Regular DVS (0 to 90% RH), listed as HC0

SMILES: COc1cccc2[nH]c3c4c(c5c(c3c12)C(=O)N(CN1CCN(C)CC1)C5=O)CCC4 [Compound I, 4,5,6,7-tetrahydro-11-methoxy-2-[(4-methyl-1-piperazinyl)methyl]-1H-cyclopenta[a]pyrrolo[3,4-c]carbazole-1,3(2H)-dione]
chemical degradation ([1]; 40° C. and 75% RH): not observed
chemical degradation ([1]; exposed to 110° C.): observed

SMILES: COc1cccc2[nH]c3c4c(c5c(c3c12)C(=O)N(CN1CCN(C)CC1)C5=O)CCC4 [Form A0, 4,5,6,7-tetrahydro-11-methoxy-2-[(4-methyl-1-piperazinyl)methyl]-1H-cyclopenta[a]pyrrolo[3,4-c]carbazole-1,3(2H)-dione]
DVS % increase in mass at 90% RH [2]: 0.1%
Total uptake at 90% RH ([2]; Irregular DVS (90 to 0% RH)): 0.5%
changes by XRPD re-analysis after DVS ([2]; Irregular DVS (90 to 0% RH)): No significant changes
total increase in mass (reversible isotherm) ([2]; Irregular DVS (90 to 0% RH)): < 0.6%
At 75% RH uptake [2, 7]: 0.15%
Total uptake at 90% RH [2, 7]: 0.5%
At 75% RH uptake ([2]; Regular DVS (0 to 90% RH)): less than 0.08%
Total uptake at 90% RH ([2]; Regular DVS (0 to 90% RH)): approximately 0.1%
changes by XRPD re-analysis after DVS ([2]; Regular DVS (0 to 90% RH)): No significant changes
hygroscopicity ([2]; Regular DVS (0 to 90% RH), adsorption and desorption curves overlap): not hygroscopic
At 75% RH uptake [2, 8]: 0.08%
Total uptake at 90% RH [2, 8]: 0.1%
XRPD crystallinity after milling ([3]; five minutes, Wig-l-Bug): crystallinity had been significantly reduced
XRPD crystallinity after grinding ([3]; twenty minutes, mortar and pestle): crystallinity had been significantly reduced
form after slurrying in water [4]: converted to the hydrate forms (mixture of Forms HC0 and HD0)
Forms Found (XRPD of residual solid) ([4]; 5° C., 1 day): HC0, HD0
Forms Found (XRPD of residual solid) ([4]; 5° C., 4 days): HC0, HD0
Forms Found (XRPD of residual solid) ([4]; 45° C., 1 day): HA0, HC0
Chemical Stability (HPLC (post 4 weeks at 40° C./75% RH (Area %))) ([1]; 40° C./75% RH): 99.0 Area %
forms arising on storage (water uptake) ([1]; 40° C. and 75% RH, after 3 months): hydrate Forms HC0 and HD0
HPLC % Compound I ([1]; 40° C./75% RH, 5 days): 99.2% Compound I,
HPLC % Compound I ([1]; 40° C./75% RH, 16 days): 99.2% Compound I,
HPLC % Compound I ([1]; 40° C./75% RH, 29 days): 99.2% Compound I,
HPLC % Compound I ([1]; 40° C./75% RH, 141 days): 99.0% Compound I,
XRPD (form found) ([1]; 40° C./75% RH, 141 days): A0, HC0, HD0
HPLC % Compound I ([1]; 60° C./0% RH, 7 days): 99.3% Compound I,
HPLC % Compound I ([1]; 60° C./0% RH, 14 days): 99.1% Compound I,
HPLC % Compound I ([1]; 60° C./0% RH, 28 days): 99.1% Compound I,
HPLC % Compound I ([1]; 110° C., 7 days): 98.7% Compound I,
HPLC % Compound I ([1]; 110° C., 14 days): 95.6% Compound I,
HPLC % Compound I ([1]; 110° C., 28 days): 93.4% Compound I,
form produced on crystallization from aqueous media [5]: a mixture of Forms HC0+HD0 is produced
Forms Found ([5]; methyl acetate, 0.175 volumes of water): HC0, HD0
Forms Found ([5]; methyl acetate, 0.25 volumes of water): HC0, HD0
Forms Found ([5]; methyl acetate, 1 volume of water): HC0, HD0
Forms Found ([5]; methyl acetate, 1.5 volumes of water): HC0, HD0
solid-solid transformation (VT-XRPD) ([6]; 20° C. to 250° C.): No solid-solid transformation takes place
change in XRPD pattern after heating ([6]; heated to 220° C., then exposure to ambient conditions): no significant change

SMILES: COc1cccc2[nH]c3c4c(c5c(c3c12)C(=O)N(CN1CCN(C)CC1)C5=O)CCC4 [Form B0, 4,5,6,7-tetrahydro-11-methoxy-2-[(4-methyl-1-piperazinyl)methyl]-1H-cyclopenta[a]pyrrolo[3,4-c]carbazole-1,3(2H)-dione]
solid-solid transformation (VT-XRPD) ([6]; 150° C. to 200° C., after the dehydration): no solid-solid transformation takes place

The next lines start with results.

XRPD post DVS analysis [2]: No significant changes
DVS % increase in mass at 90% RH [2]: 1.5%
weight decrease in DVS isotherm ([2]; between 20-30% RH): 1.25%
second change in mass ([2]; second desorption phase): ~0.4%
Chemical Stability (HPLC (post 4 weeks at 40° C./75% RH (Area %))) ([1]; 40° C./75% RH): 99.0 Area %
HPLC % Compound I ([1]; 40° C./75% RH, 0 days): 99.6% Compound I,
XRPD (form found) ([1]; 40° C./75% RH, 0 days): HA0
HPLC % Compound I ([1]; 40° C./75% RH, 7 days): 99.5% Compound I,
XRPD (form found) ([1]; 40° C./75% RH, 7 days): HA0
HPLC % Compound I ([1]; 40° C./75% RH, 26 days): 99.0% Compound I,
XRPD (form found) ([1]; 40° C./75% RH, 26 days): HA0
form produced on crystallization from aqueous media [5]: a mixture of Forms HC0+HD0 is produced
Forms Found ([5]; solvent not given, 0.175 volumes of water): HC0, HD0
SMILES: COc1cccc2[nH]c3c4c(c5c(c3c12)C(=O)N(CN1CCN(C)CC1)C5=O)CCC4 [Form HA0, 4,5,6,7-tetrahydro-11-methoxy-2-[(4-methyl-1-piperazinyl)methyl]-1H-cyclopenta[a]pyrrolo[3,4-c]carbazole-1,3(2H)-dione]
form after slurrying in water [4]: converted to the hydrate forms (mixture of Forms HC0 and HD0)

factor of reduction in intensity of XRPD peak at 7.6° (2θ) ([3]; three five-minute grinding intervals): approximately 30
SMILES: COc1cccc2[nH]c3c4c(c5c(c3c12)C(=O)N(CN1CCN(C)CC1)C5=O)CCC4 [Form HB0]

DVS % increase in mass at 90% RH [2]: 0.44%
At 75% RH uptake ([2]; Irregular DVS (90 to 0% RH)): 0.3%
Total uptake at 90% RH ([2]; Irregular DVS (90 to 0% RH)): 0.4%
changes by XRPD re-analysis after DVS ([2]; Irregular DVS (90 to 0% RH)): No significant changes
Total uptake at 90% RH ([2]; Regular DVS (0 to 90% RH)): 0.4%
changes by XRPD re-analysis after DVS ([2]; Regular DVS (0 to 90% RH)): No significant changes
At 75% RH uptake [2, 9]: 0.3%
Total uptake at 90% RH [2, 9]: 0.4%
Chemical Stability (HPLC (post 4 weeks at 40° C./75% RH (Area %))) ([1]; 40° C./75% RH): 99.0 Area %
HPLC % Compound I ([1]; 40° C./75% RH, 0 days): 92.6% Compound I,
XRPD (form found) ([1]; 40° C./75% RH, 0 days): HC0
HPLC % Compound I ([1]; 40° C./75% RH, 28 days): 93.3% Compound I,
HPLC % others ([1]; 40° C./75% RH, 28 days): 0.2% others
XRPD (form found) ([1]; 40° C./75% RH, 28 days): HC0
SMILES: COc1cccc2[nH]c3c4c(c5c(c3c12)C(=O)N(CN1CCN(C)CC1)C5=O)CCC4 [Form HC0, 4,5,6,7-tetrahydro-11-methoxy-2-[(4-methyl-1-piperazinyl)methyl]-1H-cyclopenta[a]pyrrolo[3,4-c]carbazole-1,3(2H)-dione]

HPLC % Compound I ([1]; 40° C./75% RH, 9 days): 99.4% Compound I,
XRPD (form found) ([1]; 40° C./75% RH, 9 days): transformed into monohydrate Form HC0
XRPD (form found) ([1]; 40° C./75% RH, 9 days, listed as S40): HC0
HPLC % Compound I ([1]; 40° C./75% RH, 17 days): 99.4% Compound I,
XRPD (form found) ([1]; 40° C./75% RH, 17 days): HC0
HPLC % Compound I ([1]; 40° C./75% RH, 31 days): 99.4% Compound I,
XRPD (form found) ([1]; 40° C./75% RH, 31 days): HC0
HPLC % Compound I ([1]; 40° C./75% RH, 62 days): 99.2% Compound I,
XRPD (form found) ([1]; 40° C./75% RH, 62 days): remained in this state
XRPD (form found) ([1]; 40° C./75% RH, 62 days, listed as S40): HC0
SMILES: COc1cccc2[nH]c3c4c(c5c(c3c12)C(=O)N(CN1CCN(C)CC1)C5=O)CCC4 [Form S40]
